Test results taken from patent US11110195B2, “Esculentin 1a derivatives and uses thereof” (University of Houston System, priority 2013, dated 2021).
Residues, ends and D or L forms follow the SMILES beside them.

Test system: P. aeruginosa ATCC 27853
Experiment: Bactericidal activity in the presence of reflex human tears
Format: cell-based, Pseudomonas aeruginosa
Conditions: 10 μM or 20 μM peptide, 50% or 70% reflex tears
Description: FIG. 3A: Bacterial cells were incubated with 10 μM or 20 μM peptide in the presence of 50% reflex tears induced by onion vapors and pooled from three consenting adult volunteers with a normal ocular surface. FIG. 3B: Bacteria were incubated with 20 μM peptide in the presence of 70% reflex tears. In both cases, aliquots were withdrawn for cell counting at different time intervals. Mean data, expressed as the percentage of bacteria killed by the peptide are shown.
2×10^6 CFU/ml P. aeruginosa (ATCC 27853) were incubated with 10μM or 20μM Esc-1a(1-21)NH2 in the presence of 50% (FIG. 3A) or 70% (FIG. 3B) human reflex tears and aliquots withdrawn, plated and counted after 30, 90 and 120 minutes (n=3).

For `CC[C@H](C)[C@H](NC(=O)CN)C(=O)N[C@@H](Cc1ccccc1)C(=O)N[C@@H](CO)C(=O)N[C@@H](CCCCN)C(=O)N[C@@H](CC(C)C)C(=O)N[C@@H](C)C(=O)NCC(=O)N[C@@H](CCCCN)C(=O)N[C@@H](CCCCN)C(=O)N[C@H](C(=O)N[C@@H](CCCCN)C(=O)N[C@@H](CC(N)=O)C(=O)N[C@@H](CC(C)C)C(=O)N[C@@H](CC(C)C)C(=O)N[C@H](C(=O)N[C@@H](CO)C(=O)NCC(=O)N[C@@H](CC(C)C)C(=O)N[C@@H](CCCCN)C(=O)NCC(N)=O)[C@@H](C)CC)[C@@H](C)CC` [Esc-1a(1-21)NH2] (H-GIFSKLAGKKIKNLLISGLKG-NH2; N-terminus assumed), the “retention of activity in reflex tears” value was “activity was retained”.
